Reference: patent US20160354300A1, “Low Viscosity Hair Care Composition” (The Procter & Gamble Company, priority 2015, published 2016)
Structures can show the parent of a compound that is named as a salt.

Columns and labels:
[1] = Visual cloudiness of surfactant formulation with added agent after 20:1 dilution with water; type: physicochemical; design: key: Samples that appeared cloudy (turbid) within less than a day were noted as cloudy (“Yes”); Samples that did not appear cloudy (turbid) within less than a day were noted as not cloudy (“No”); conditions: 0.5 g formula, 10 ml deionized water; for Cloudy at 1:20 dilution at 2%, 4%, and/or 6%: Table 3, visual, within less than a day; for Added at 2%: cloudy at 20:1 dilution: agent at 2%; for Added at 4%: cloudy at 20:1 dilution: agent at 4%; for Added at 6%: cloudy at 20:1 dilution: agent at 6%; for Added at 8%: cloudy at 20:1 dilution: agent at 8%
Experimental: Now referring to Tables 3 and 4, the following surfactant formulations were made by mixing 1.6% perfume, 24% sodium undecyl sulfate (CAS#1072-24-8) active, 6% lauramidopropyl betaine (CAS#4292-10-8) active, and 60.4% deionized water which leaves 8% unfilled for the addition of the listed agents (the balance being filled in by distilled water). The agents were added at a percentage of 2%, 4%, 6%, and 8% into the above surfactant formulation. The resulting formulations were vortexed and put into oven at 60° C. overnight to form homogeneous solution. For all formulations, the surfactant, water and additives, including the added agents, were expected to be in a single phase.
The resulting formulations were weighed out in a scintillation vial combined with 10 ml of water to achieve a representative dilution during use: 0.5 g formula, 10 ml deionized water for 20:1 dilution. After the combination of the ingredients, the vial was vigorously shaken by hand and the samples were visually inspected by looking at the solution against a dark background. Samples that appeared cloudy (turbid) within less than a day were noted as cloudy (“Yes”). […] Samples that appeared cloudy at the 20:1 dilution for any of the 2%, 4% or 6% concentration of oil may be most desirable by requiring a limited amount of the agent to be added, limiting cost and trade-offs associated with higher levels.
The appearance of a cloudy formulation at 1:20 dilution at 2%, 4%, and/or 6% can signal improved deposition of surfactant soluble active agents during consumer use.

[2] = Kinematic viscosity at 40 C of surfactant base formulation with added agent (Cannon viscometer); type: physicochemical; conditions: for Lowest viscosity achieved (cSt): Table 1, base formulation 24% sodium undecyl sulfate, 6% lauramidopropyl betaine, 1.6% perfume, agent at 2%, 4%, 6%, 8%, 40° C.; for Kinematic viscosity at 40 C. [cSt], 2% oil: agent added at 2% to base formulation; for Kinematic viscosity at 40 C. [cSt], 4% oil: agent added at 4% to base formulation; for Kinematic viscosity at 40 C. [cSt], 6% oil: agent added at 6% to base formulation; for Kinematic viscosity at 40 C. [cSt], 8% oil: agent added at 8% to base formulation
Excerpt: Referring to Tables 1 and 2, the base formulations were made by mixing 1.6% perfume, 24% sodium undecyl sulfate (CAS#1072-24-8) active, 6% lauramidopropyl betaine (CAS#4292-10-8) active and 60.4% deionized water which leaves 8% unfilled for the addition of a viscosity reducing agent (the balance being filled in by distilled water). For all compositions, the surfactant, water and additives including viscosity reducing agents were expected to be in a single phase.
The agents from Tables 1 and 2 were added to the base formulation at a percentage of 2%, 4%, 6%, and 8% into the above surfactant solution. The subsequent formulations were vortexed and put into oven at 60° C. overnight to form homogeneous solution. The viscosities of the formulations were measured with calibrated viscometers (Size 200/350/450) from Cannon Instrument Company (2139 High Tech Road, State College, Pa., USA, 16803).
After the equilibration, the formulations were drawn to reach the starting mark with a rubber suction bulb and the flow time between the starting mark and end mark was recorded for calculation. Each formulation was measured three times to calculate average and standard deviation. Between samples, viscometer was cleaned with water and acetone to rinse off residual.
Viscosity values were calculated based on the equation:
Viscosity (mm^2/s·(cSt))=Time (s)*Constant (mm^2/s^2·(cSt/s))
The time in the above equation is the flow time recorded in the experiment and the constant numbers for each calibrated viscometer were obtained from the manuals. […]
The viscosities of the formulations are measured with calibrated viscometers (Size 200/350/450) from Cannon Instrument Company (2139 High Tech Road, State College, Pa., USA, 16803). Prior to the measurement, the formulations are equilibrated in the viscometer reservoir for 30 min at 40° C. in water bath to ensure a homogeneous temperature is reached in the system. […]

With `C=C(C)[C@H]1CC=C(C)CC1` [Dipentene] the “Cloudy at 1:20 dilution at 2%, 4%, and/or 6%” value (shortened to “Cloudy … and/or 6%”) [1] was “Yes”, the “Added at 2%: cloudy at 20:1 dilution” value [1] was “No” and the “Added at 4%: cloudy at 20:1 dilution” value [1] was “No”. The “Added at 6%: cloudy at 20:1 dilution” value [1] was “Yes”, the “Added at 8%: cloudy at 20:1 dilution” value [1] was “Yes” and the “Lowest viscosity achieved (cSt)” value [2] was 35 cSt. For the same compound, the “Kinematic viscosity at 40 C. [cSt], 2% oil” value (“Kinematic viscosity … 2% oil” below) [2] was 307.6 cSt, the “Kinematic viscosity at 40 C. [cSt], 4% oil” value (“Kinematic viscosity … 4% oil” for short) [2] was 74.5 cSt and the “Kinematic viscosity at 40 C. [cSt], 6% oil” value (“Kinematic viscosity … 6% oil” for short) [2] was 35.1 cSt. For the same compound, the “Kinematic viscosity at 40 C. [cSt], 8% oil” value (shortened to “Kinematic viscosity … 8% oil”) [2] was 42.6 cSt.
With `CCC(CC(C)CC)=NO` (stereo not shown) [5-Methyl-3-Heptanone Oxime] the “Lowest viscosity achieved (cSt)” value [2] was 246 cSt and the “Kinematic viscosity … 2% oil” value [2] was 246.3 cSt.
For `CCOC(=O)CC(O)(CC(=O)OCC)C(=O)OCC` [Triethyl Citrate], the “Lowest viscosity achieved (cSt)” value [2] was 41 cSt, the “Kinematic viscosity … 2% oil” value [2] was 269.4 cSt and the “Kinematic viscosity … 4% oil” value [2] was 136.6 cSt. For the same compound, the “Kinematic viscosity … 6% oil” value [2] was 66.6 cSt and the “Kinematic viscosity … 8% oil” value [2] was 40.5 cSt.
For `C=C(C)[C@H]1CC=C(C)CC1` [Limonene], the “Lowest viscosity achieved (cSt)” value [2] was 86 cSt, the “Kinematic viscosity … 2% oil” value [2] was 366.5 cSt and the “Kinematic viscosity … 4% oil” value [2] was 166.8 cSt. For the same compound, the “Kinematic viscosity … 6% oil” value [2] was 97.5 cSt and the “Kinematic viscosity … 8% oil” value [2] was 86.4 cSt.
In the case of `CCCCCC(=O)OCC(C)C` [Isobutyl Hexanoate], the “Cloudy … and/or 6%” value [1] is reported as “No”, the “Added at 2%: cloudy at 20:1 dilution” value [1] is reported as “No” and the “Added at 4%: cloudy at 20:1 dilution” value [1] is reported as “No”. For the same compound, the “Added at 6%: cloudy at 20:1 dilution” value [1] was “No”, the “Added at 8%: cloudy at 20:1 dilution” value [1] was “Yes” and the “Lowest viscosity achieved (cSt)” value [2] was 109 cSt. The “Kinematic viscosity … 2% oil” value [2] was 390.0 cSt, the “Kinematic viscosity … 4% oil” value [2] was 177.9 cSt and the “Kinematic viscosity … 6% oil” value [2] was 140.9 cSt. For the same compound, the “Kinematic viscosity … 8% oil” value [2] was 109.4 cSt.
For `CC(C)CC=C(C=O)C(C)C` [2-Isopropyl-5-methyl-2-hexenal], the “Cloudy … and/or 6%” value [1] was “No”, the “Added at 2%: cloudy at 20:1 dilution” value [1] was “No” and the “Added at 4%: cloudy at 20:1 dilution” value [1] was “No”. The “Lowest viscosity achieved (cSt)” value [2] was 332 cSt and the “Kinematic viscosity … 2% oil” value [2] was 332.3 cSt.
With `CCCCOC(=O)c1ccccc1O` [Butyl Salicylate] the “Cloudy … and/or 6%” value [1] was “No”, the “Added at 2%: cloudy at 20:1 dilution” value [1] was “No” and the “Lowest viscosity achieved (cSt)” value [2] was 368 cSt. The “Kinematic viscosity … 2% oil” value [2] was 367.9 cSt.
For `CCCCCCC1C(=O)CCC1C(=O)OC` (stereo not shown) [Dihyro Iso Jasmonate], the “Cloudy … and/or 6%” value [1] was “No”, the “Added at 2%: cloudy at 20:1 dilution” value [1] was “No” and the “Lowest viscosity achieved (cSt)” value [2] was 119 cSt. The “Kinematic viscosity … 2% oil” value [2] was 334.9 cSt and the “Kinematic viscosity … 4% oil” value [2] was 119.1 cSt.
In the case of `CC12CCC(CC1)C(C)(C)O2` [Eucalyptol], the “Cloudy … and/or 6%” value [1] is reported as “No”, the “Added at 2%: cloudy at 20:1 dilution” value [1] is reported as “No” and the “Added at 4%: cloudy at 20:1 dilution” value [1] is reported as “No”. For the same compound, the “Added at 6%: cloudy at 20:1 dilution” value [1] was “No”, the “Lowest viscosity achieved (cSt)” value [2] was 203 cSt and the “Kinematic viscosity … 2% oil” value [2] was 527.3 cSt. For the same compound, the “Kinematic viscosity … 4% oil” value [2] was 292.9 cSt and the “Kinematic viscosity … 6% oil” value [2] was 203.1 cSt.
For `CCC(=O)O[C@@H]1C[C@H]2CC[C@]1(C)C2(C)C` (racemic) [Iso Bornyl Propionate], the “Lowest viscosity achieved (cSt)” value [2] was 463 cSt and the “Kinematic viscosity … 2% oil” value [2] was 463.1 cSt.
For `CC(C)COC(=O)c1ccccc1O` [Iso Butyl Salicylate], the “Cloudy … and/or 6%” value [1] was “No”, the “Added at 2%: cloudy at 20:1 dilution” value [1] was “No” and the “Added at 4%: cloudy at 20:1 dilution” value [1] was “No”. The “Lowest viscosity achieved (cSt)” value [2] was 409 cSt and the “Kinematic viscosity … 2% oil” value [2] was 408.7 cSt.
For `CC12CCC(CC1=O)C2(C)C` (stereo not shown) [Camphor Gum], the “Lowest viscosity achieved (cSt)” value [2] was 127 cSt, the “Kinematic viscosity … 2% oil” value [2] was 365.8 cSt and the “Kinematic viscosity … 4% oil” value [2] was 127.2 cSt.
